Reference: patent publication US12495798B2, “Nicotinamide compound and herbicidal composition comprising compound” (KOREA RESEARCH INSTITUTE OF CHEMICAL TECHNOLOGY, priority 2019, dated 2025)

Tests used:
Format in all cases: in vivo
bindweed = experiment: Herbicidal activity test against upland field weeds (soil treatment test); parameters: key to Soil treatment herbicidal activity, Bindweed: 0 (no control); 100 (complete control); conditions: scale 0 (no control) to 100 (complete control)
Procedure, shortened: (§1)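 Pre-emergence soil surface spray, day after sowing, into sandy loam pots with fertilizer; compounds at 50 or 75 g a.i./ha in 50% acetone, 0.1% Tween-20. Greenhouse at 30±5 °C, 14/10 h light/dark; visual control rated 0–100 against untreated after 14 days (21 if needed).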

velvetleaf [1] = experiment: Herbicidal activity test against upland field weeds (foliar treatment test); parameters: key to Foliar treatment herbicidal activity, velvet leaf: 0 (no control); 100 (complete control)
Procedure, shortened: (§2)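 Greenhouse-grown plants (30±5 °C, 14/10 h light/dark) foliar hand-sprayed with compound in 50% acetone, 0.1% Tween-20 at 50 or 75 g a.i./ha. Control visually scored 0 (none) to 100 (complete) versus untreated after 14 days, or 21 days if needed.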

indian jointvetch = experiment: as above; parameters: key to Foliar treatment herbicidal activity, Indian jointvetch: 0 (no control); 100 (complete control); conditions: scale 0-100
Procedure, shortened: as §2

quack grass = experiment: Herbicidal activity test against upland field weeds (soil treatment test); parameters: key to Soil treatment herbicidal activity, quack grass: 0 (no control); 100 (complete control); conditions: scale 0 (no control) to 100 (complete control)
Procedure, shortened: as §1

cocklebur = experiment: Herbicidal activity test against upland field weeds (foliar treatment test); parameters: key to Foliar treatment herbicidal activity, Cocklebur: 0 (no control); 100 (complete control); conditions: scale 0-100; for Foliar treatment herbicidal activity, Cocklebur / pest or weed control at 50 g/ha: 50 g ai/ha
Procedure, shortened: as §2

barnyard grass = experiment: Herbicidal activity test against upland field weeds (soil treatment test); parameters: key to Soil treatment herbicidal activity, barnyard grass: 0 (no control); 100 (complete control); conditions: scale 0 (no control) to 100 (complete control)
Procedure, shortened: as §1

cotton = experiment: Phytotoxicity test for upland field crops (foliar treatment test); parameters: key: 0 (no harm); 9 (complete withered)
Procedure, shortened: (§3)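 Phytotoxicity was rated on a 0 (no harm) to 9 (complete withered) scale relative to untreated plants, 7 and 14 days after spraying. Crops had been grown in fertilized horticultural soil under greenhouse conditions before foliar application at 19˜300 g a.i./ha.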

wheat = experiment: as above; parameters: key: 0 (no harm); 9 (complete withered)
Procedure, shortened: as §3

corn = experiment: as above; parameters: key: 0 (no harm); 9 (complete withered)
Procedure, shortened: as §3

rice = experiment: as above; parameters: key: 0 (no harm); 9 (complete withered)
Procedure, shortened: as §3

soybean = experiment: as above; parameters: key: 0 (no harm); 9 (complete withered)
Procedure, shortened: as §3

black nightshade = experiment: Herbicidal activity test against upland field weeds (foliar treatment test); parameters: key to Foliar treatment herbicidal activity, black nightshade: 0 (no control); 100 (complete control); conditions: scale 0-100
Procedure, shortened: as §2

velvetleaf [2] = experiment: Herbicidal activity test against upland field weeds (soil treatment test); parameters: key to Soil treatment herbicidal activity, velvet leaf: 0 (no control); 100 (complete control); conditions: scale 0 (no control) to 100 (complete control)
Procedure, shortened: as §1

[3] = 50 g ai/ha, Cotton (7 days after treatment)
[4] = 50 g ai/ha, Cotton (14 days after treatment)
[5] = 100 g ai/ha, Cotton (7 days after treatment)
[6] = 100 g ai/ha, Cotton (14 days after treatment)
[7] = 50 g ai/ha, Wheat (7 days after treatment)
[8] = 50 g ai/ha, Wheat (14 days after treatment)
[9] = 100 g ai/ha, Wheat (7 days after treatment)
[10] = 100 g ai/ha, Wheat (14 days after treatment)
[11] = 50 g ai/ha, Corn (7 days after treatment)
[12] = 50 g ai/ha, Corn (14 days after treatment)
[13] = 100 g ai/ha, Corn (7 days after treatment)
[14] = 100 g ai/ha, Corn (14 days after treatment)
[15] = 50 g ai/ha, Rice (7 days after treatment)
[16] = 50 g ai/ha, Rice (14 days after treatment)
[17] = 100 g ai/ha, Rice (7 days after treatment)
[18] = 100 g ai/ha, Rice (14 days after treatment)
[19] = 50 g ai/ha, Soybean (7 days after treatment)
[20] = 50 g ai/ha, Soybean (14 days after treatment)
[21] = 100 g ai/ha, Soybean (7 days after treatment)
[22] = 100 g ai/ha, Soybean (14 days after treatment)
[23] = Abutilon theophrasti, 50 g ai/ha, scale 0-100, read-out: Foliar treatment herbicidal activity, velvet leaf

Row | SMILES | Soil treatment herbicidal activity, Bindweed (bindweed; 50 g ai/ha) | Soil treatment herbicidal activity, quack grass (quack grass; 50 g ai/ha) | Soil treatment herbicidal activity, barnyard grass (barnyard grass; 50 g ai/ha) | Foliar treatment phytotoxicity, Cotton (cotton; [3]) | Foliar treatment phytotoxicity, Cotton (cotton; [4]) | Foliar treatment phytotoxicity, Cotton (cotton; [5]) | Foliar treatment phytotoxicity, Cotton (cotton; [6]) | Foliar treatment phytotoxicity, Wheat (wheat; [7]) | Foliar treatment phytotoxicity, Wheat (wheat; [8]) | Foliar treatment phytotoxicity, Wheat (wheat; [9]) | Foliar treatment phytotoxicity, Wheat (wheat; [10]) | Foliar treatment phytotoxicity, Corn (corn; [11]) | Foliar treatment phytotoxicity, Corn (corn; [12]) | Foliar treatment phytotoxicity, Corn (corn; [13]) | Foliar treatment phytotoxicity, Corn (corn; [14]) | Foliar treatment phytotoxicity, Soybean (soybean; [19]) | Foliar treatment phytotoxicity, Soybean (soybean; [20]) | Foliar treatment phytotoxicity, Soybean (soybean; [21]) | Foliar treatment herbicidal activity, black nightshade (black nightshade; 50 g ai/ha) | Soil treatment herbicidal activity, velvet leaf (velvetleaf [2]; 50 g ai/ha) | also measured
1 | CCOC(=O)OC(C)N(C(=O)c1ccc(C(F)(F)F)nc1COCc1nnn(C)n1)c1nnnn1C (stereo not shown) [Compound No. 4-8, ethyl(1-(N-(1-methyl-1H-tetrazol-5-yl)-2-(((2-methyl-2H-tetrazol-5-yl)methoxy)methyl)-6-(trifluoromethyl)nicotinamido)ethyl)carbonate] | 0 | 0 | 100 | 0 | 0 | 0 | 0 | 2 | 1 | 2 | 2 | 0 | 0 | 0 | 0 | 0 | 0 | 0 | 100 | 100 | Foliar treatment herbicidal activity, velvet leaf (velvetleaf [1]; 50 g ai/ha, scale 0-100): 100; Foliar treatment herbicidal activity, Indian jointvetch (indian jointvetch; 50 g ai/ha): 100; Foliar treatment herbicidal activity, Cocklebur (cocklebur): 100; Foliar treatment phytotoxicity, Rice (rice; [15]): 0; Foliar treatment phytotoxicity, Rice (rice; [16]): 0; Foliar treatment phytotoxicity, Rice (rice; [17]): 0; Foliar treatment phytotoxicity, Rice (rice; [18]): 0; Foliar treatment phytotoxicity, Soybean (soybean; [22]): 0
2 | Cn1nnc(COCc2nc(C(F)F)ccc2C(=O)Nc2nnnn2C)n1 [Compound No. 2-84, 6-(difluoromethyl)-N-(1-methyl-1H-tetrazol-5-yl)-2-(((2-methyl-2H-tetrazol-5-yl)methoxy)methyl)nicotinamide] | – | 0 | – | 5 | 9 | 5 | 9 | 0 | 0 | 0 | 0 | 2 | 1 | 3 | 4 | 6 | 7 | 6 | 100 | 100 | pest or weed control at 50 g/ha (bindweed; 50 g ai/ha): 40%; pest or weed control at 50 g/ha (velvetleaf [1]; [23]): 98%; pest or weed control at 50 g/ha (indian jointvetch; 50 g ai/ha): 70%; pest or weed control at 50 g/ha (cocklebur; Xanthium strumarium): 95%; pest or weed control at 50 g/ha (barnyard grass; Echinochloa crus-galli, 50 g ai/ha): 70%; Foliar treatment phytotoxicity, Rice (rice; [15]): 6; Foliar treatment phytotoxicity, Rice (rice; [16]): 7; Foliar treatment phytotoxicity, Rice (rice; [17]): 6; Foliar treatment phytotoxicity, Rice (rice; [18]): 9; Foliar treatment phytotoxicity, Soybean (soybean; [22]): 8
3 | CN(Cc1nnn(C)n1)c1nc(C(F)(F)F)ccc1C(=O)Nc1nnnn1C [Compound No. 2-26, 2-(methyl((2-methyl-2H-tetrazol-5-yl)methyl)amino)-N-(1-methyl-1H-tetrazol-5-yl)-6-(trifluoromethyl)nicotinamide] | – | – | – | 1 | 4 | 2 | 4 | 1 | 0 | 1 | 0 | 0 | 0 | 0 | 0 | 3 | 9 | 4 | – | – | Soil treatment herbicidal activity, Bindweed (bindweed; 75 g ai/ha): 100; pest or weed control at 75 g/ha (velvetleaf [1]; Abutilon theophrasti, 75 g ai/ha, scale 0-100, read-out: Foliar treatment herbicidal activity, velvet leaf): 98%; pest or weed control at 75 g/ha (indian jointvetch; 75 g ai/ha): 90%; Soil treatment herbicidal activity, quack grass (quack grass; 75 g ai/ha): 0; pest or weed control at 75 g/ha (cocklebur; Xanthium strumarium, 75 g ai/ha): 98%; Soil treatment herbicidal activity, barnyard grass (barnyard grass; 75 g ai/ha): 100; Foliar treatment phytotoxicity, Soybean (soybean; [22]): 9; Foliar treatment herbicidal activity, black nightshade (black nightshade; 75 g ai/ha): 100; Soil treatment herbicidal activity, velvet leaf (velvetleaf [2]; 75 g ai/ha): 100
4 | Cn1nnc(CSCc2nc(C(F)(F)F)ccc2C(=O)N(C(=O)c2ccccc2)c2nnnn2C)n1 [Compound No. 2-109, N-benzoyl-N-(1-methyl-1H-tetrazol-5-yl)-2-((((2-methyl-2H-tetrazol-5-yl)methyl)thio)methyl)-6-(trifluoromethyl)nicotinamide] | 0 | 0 | 0 | – | – | – | – | 2 | 2 | 3 | 3 | 0 | 0 | 0 | 0 | – | – | – | 100 | 100 | pest or weed control at 50 g/ha (velvetleaf [1]; [23]): 80%; pest or weed control at 50 g/ha (indian jointvetch; 50 g ai/ha): 98%; Foliar treatment herbicidal activity, Cocklebur (cocklebur): 100
5 | Cn1nnc(CSCc2nc(C(F)F)ccc2C(=O)Nc2nnnn2C)n1 [Compound No. 2-108, 6-(difluoromethyl)-N-(1-methyl-1H-tetrazol-5-yl)-2-((((2-methyl-2H-tetrazol-5-yl)methyl)thio)methyl)nicotinamide] | 0 | 0 | 0 | – | – | – | – | 3 | 3 | 4 | 4 | 0 | 0 | 0 | 0 | – | – | – | 100 | 0 | pest or weed control at 50 g/ha (velvetleaf [1]; [23]): 30%; pest or weed control at 50 g/ha (indian jointvetch; 50 g ai/ha): 80%; pest or weed control at 50 g/ha (cocklebur; Xanthium strumarium): 98%
